From patent US12679878B2, “CRF2 receptor agonists and their use in therapy” (SANOFI, priority 2020, dated 2026)
Starred links: 1 amine or outer side, 2 acyl side, 3 side chain; linkers in the order of their positions; H or OH if unused. Residues, ends and D or L forms follow the SMILES beside them. Groups on a side chain read outwards from the residue. *: point of attachment. C18 diacid = O=C(O)CCCCCCCCCCCCCCCCC(=O)*; γGlu = O=C(O)[C@H](CCC(=O)[*:2])N[*:1]; AEEA = NCCOCCOCC(=O)O

Tests used:
[1] = Effect on body mass, body fat content and food intake in high-fat diet fed (DIO) mice (Example 18); type: in vivo, C57BL/6N Crl mice
Description: The peptide of SEQ ID NO: 35 was assessed for its ability to reduce body mass and body fat content in mice. Its efficacy was compared with that of a reference compound, namely the compound of Example 4 of WO2018013803 (Alsina-Fernandez; Eli Lilly and Company), referred to herein as “Compound A”.
Female C57BL/6N Crl mice were group housed under vivarium conditions that included a 12 h light/dark cycle and a room temperature of 23±1° C. All animals had free access to water and diet (Ssniff adjusted high fat diet: TD.97366, Soest, Germany) for 18 weeks prior to pharmacological intervention (dosing phase). After the pre-feeding period, mice were single housed and randomized according to body weight to treatment groups with n=8, so that each group has similar mean body weight. At the start of the study, mice were between 25-26 weeks old with body weight of 42-50 g. Mice were treated every second day during late afternoon hours prior lights off with a subcutaneous injection of 8 nmol/kg of the test compounds or their vehicle (phosphate-buffered saline (PBS). Body weight and food intake were measured daily throughout the dosing phase while body fat content was measured at day 0 prior to the start of treatment and at day 15. The study was terminated on day 15.
For statistical analyses a One-Way Analysis of Variance (ANOVA) was performed with SigmaStat 3.5. The test was performed with a risk alpha of 0.050 and a comparison versus the high fat diet-Vehicle group was performed with Dunnett's tests.

[2] = Effect on blood pressure, telemetry (Example 17); type: in vivo; conditions: Sprague Dawley rats, 0.1 mg/kg SC
Method in brief: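 Sprague Dawley rats with an aortic-catheter telemetry implant, recovered at least 2 weeks, given compound or vehicle at 0.1 mg/kg SC. HR, SBP, DBP and MBP recorded continuously for 48 h. Each 4-hour post-dose mean was compared with a 1-hour pre-dose basal mean.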

## CC[C@H](C)[C@H](N)C(=O)N[C@H](C(=O)N[C@@H](CC(C)C)C(=O)N[C@@H](CO)C(=O)N[C@@H](CC(C)C)C(=O)N[C@@H](CC(=O)O)C(=O)N[C@H](C(=O)N1CCC[C@H]1C(=O)N[C@H](C(=O)N[C@@H](CCCCN)C(=O)N[C@@H](CC(C)C)C(=O)N[C@@H](CCCCNC(=O)COCCOCCNC(=O)COCCOCCNC(=O)CC[C@H](NC(=O)CCCCCCCCCCCCCCCCC(=O)O)C(=O)O)C(=O)N[C@@H](CCCCN)C(=O)N[C@H](C(=O)N[C@@H](CC(C)C)C(=O)N[C@@H](CC(C)C)C(=O)N[C@@H](CCC(=O)O)C(=O)N[C@@H](CCC(N)=O)C(=O)N[C@@H](CCC(=O)O)C(=O)N[C@@H](CCCCN)C(=O)N[C@@H](CCC(N)=O)C(=O)N[C@@H](CCCCN)C(=O)N[C@@H](CCCCN)C(=O)N[C@@H](CCC(N)=O)C(=O)N[C@@H](CCCNC(=N)N)C(=O)N[C@@H](CCC(=O)O)C(=O)N[C@@H](CCC(N)=O)C(=O)N[C@@H](C)C(=O)N[C@@H](CCC(=O)O)C(=O)N[C@H](C(=O)N[C@@H](CC(N)=O)C(=O)N[C@@H](CCCCN)C(=O)N[C@@H](CCC(N)=O)C(=O)N[C@H](C(=O)N[C@@H](CC(C)C)C(=O)N[C@@H](C)C(=O)N[C@@H](CCC(N)=O)C(=O)N[C@H](C(N)=O)C(C)C)[C@@H](C)CC)[C@@H](C)O)[C@@H](C)CC)[C@@H](C)CC)C(C)C)C(C)C [SEQ ID NO: 35] (H-IVLSLDVPIKLK([AEEA-AEEA-γGlu-C18 diacid])KILLEQEKQKKQREQAETNKQILAQV-NH2)
[1]; 8 nmol/kg s.c. every second day
  cumulative food intake over 15 days: 39.3 ± 2.5 g
[1]; 8 nmol/kg s.c. every second day, 15 days
  lean mass change: −6.3±1.7%
[1]; 8 nmol/kg s.c. every second day, 15 days, mean±SEM
  relative body weight change: −10.8±1.4%
[1]; 8 nmol/kg s.c. every second day, day 15 vs day 0
  reduction in body fat content: −34.2±2.9%
[1]; 8 nmol/kg s.c., normalized after second treatment (FIG. 1)
  food intake after first administration: meaningful reduction of food intake
[2]
  Duration (h): last time point for which a significant effect on BP was still seen: 30 h
[2]; 8 h
  Effect on Systolic Pressure % change from baseline 8 h: −14.1%
[2]; 24 h
  Effect on Systolic Pressure % change from baseline 24 h: −5.0%
